Experimental data published in patent publication US20050020519A1, “Modulation of insulin-regulated aminopeptidase (irap)/angiotensin iv (at4) receptor activity” (priority 2001, published 2005).
Where two headings read alike, the source gives them in different places. Where a SMILES comes first, the peptide text is derived from it.

What was measured:
[1] = system: ERK1/2 phosphorylation; test: ERK1/2 phosphorylation in rat hippocampal slices (Western blot); type: cell-based; conditions: 10^−8M, 30 min
Description: The potential of IRAP/AT4 ligands to activate MAPK or CREB was initially investigated on rat hippocampal slices. Rats were killed by decapitation and the hippocampi removed, four hundred μm thick slices cut and incubated in aCSF. […] Slices were then lysed in 200 μl of ice-cold lysis buffer (10 mM Tris-HCl pH 7.5, 50 mM NaCl, 1% triton X-100, 30 mM sodium pyrophosphate, 50 mM NaF, 5 μM ZnCl2, 0.1 mM sodium orthovanadate, 1 mM DTT, 5 nM okadaic acid, 1×Boehringer Protease inhibitor cocktail) and centrifuged at full speed. The lysates were then heated at 95° C. for 10 min in 6×SDS loading buffer and the proteins (30 μg per lane) resolved on 7.5% SDS-poylacrylamide gels. After transfer of proteins to PVDF membranes, blots were probed overnight at 4° C. with anti phospho-p44/42 MAP kinase (Thr202/Tyr204) antibody and detected by chemiluminescence using ECL blotting detection reagents and a Fuji LAS-1000.

[2] = system: ERK1/2 phosphorylation
Description: The ability of AT4 ligands to stimiuladte MAPK phosphorylation directly was investigated in HEK293 cells transfected with human IRAP. HEK293 cells were transfected with pCI-IRAP or with empty vector, plated on to 12-well plates at a density of 60,000 cells/well and grown in complete medium containing 0.2% fetal calf serum. […] The proteins were then transferred on to nitrocellulose membranes and incubated with phospho-MAPK (p44/42) antibodies and visualised with HRP-conjugated secondary antibody, using the ECL-plus western blot detection system.

[3] = system: rats; conditions: cited from earlier work
[4] = system: 3T3L1 cells; test: 2-deoxyglucose uptake in differentiated 3T3L1 adipocytes; conditions: for basal glucose uptake: no insulin, untreated 3.3±0.67
Description: The effect of IRAP inhibitors on the regulation of glucose uptake was determined in 3T3L1 cells. 3T3L1 fibroblasts were differentiated by the addition of DMEM containing 5% fetal calf serum, 4 μg/ml insulin, 0.25 mM dexamethasone and 0.5 mM 3-isobutyl-1-methyl-xanthine. […] The reaction was stopped after 10 min by washing the cells in PBS. The cells were then solubilized in 0.5 N NaOH and counted.

[5] = system: rat hippocampal slices; test: Potassium-evoked ^3H-choline release from rat hippocampal slices; type: cell-based; conditions: at 10^−7M
Description: To determine the effect of IRAP inhibitors an acetylcholine release for rat hippocampal slices in vitro, rats were anaesthetized with sodium pentobarbitone, decapitated and the brain rapidly extracted and put on ice. The two sides of the hippocampus were then dissected, and stored in Krebs buffer on ice. The tissues were sectioned into 400 μm slices using a McI1wain slicer, and incubated with 10 μM of ^3H-choline in Krebs buffer for 20 min at 37° C. Following the incubation, the sections were transferred to Brandel superfusion chambers filled with carbogenated Krebs buffer, pH7.0 containing […] hemicholinium HC-3 to prevent choline reuptake. The slices were washed for 60 min at 37° C. with Krebs buffer at a flow rate of 500 μl/min. Superfusate samples were collected at 5 min intervals for the duration of the experiment. After a stable baseline was established, the hippocampal slices were depolarised by the addition of 30 mM KCl to the Krebs buffer and infused for 4 min (stimulation period S1). The tissue was then allowed to recover for 25 min before the next stimulation period (S2). To test the effect of […] […] Fractional ^3H-choline release, expressed as a ratio of S2/S1, was then calculated for each of the different peptides at the different doses.

[6] = system: NG108-15 cells; test: ^3H-thymidine incorporation in NG108-15 cells; type: cell-based, rat-mouse hybrid
Description: (§1) NG108-15 and SK-N-MC cells were cultured in DMEM supplemented with 10% heat-inactivated FCS, 2% HAT supplement, and 100 U/ml penicillin/streptomycin. Cells were routinely used between passages 20 and 30.
(§2) Cells were plated at a density of 3×10^4 cells/well in 24 well Falcon plates that had been coated with 0.1 mg/ml poly-L-lysine hydrobromide. The cells were allowed to adhere overnight, and then serum deprived for 48 h before being treated with […] (SEQ ID NO:2) and/or Ang IV (10^−10 to 10^−6 M) for 24 h in medium with or without serum. Five hours before the end of the experiment 1 μCi of ^3H-thymidine was added to each well. At the completion of the incubation, cells were washed twice with 1 ml of PBS at 4° C., followed by 5% trichloroacetic acid at 4° C. for 30 min, which was aspirated before solubilizing the cells in 1 ml 0.25 M NaOH and 0.1% SDS for 30 min at 37° C. Samples were then collected into 5 ml of Ready Value scintillation fluid and ^3H measured in a liquid scintillation counter.

[7] = system: SK-N-MC cells; test: [^3H]-thymidine uptake in SK-N-MC cells; type: cell-based; conditions: Ang IV 10^−10-10^−7 M; LVVYPWTQRF 10^−10-10^−6 M
Description: as §1, §2

[8] = conditions similar to the DNA synthesis experiments
[9] = system: rats; conditions: intracerebroventricular dose 1 nmol; cited from earlier work
[10] = target: T1, human insulin-regulated aminopeptidase (IRAP) / angiotensin IV (AT4) receptor (human, UniProt Q9UIQ6 1-1025); test: cell-based or functional assay
[11] = target: T1, human insulin-regulated aminopeptidase …; test: radioligand displacement of 125I-Nle-Ang IV
[12] = target: T1, human insulin-regulated aminopeptidase …; test: competitive inhibition of L-leucine-β-naphthylamide cleavage by solubilised membranes of IRAP-transfected HEK 293 cells; Ki from IC50=Ki(1+[S]/Km)

T1 sequence (Q9UIQ6 whole entry): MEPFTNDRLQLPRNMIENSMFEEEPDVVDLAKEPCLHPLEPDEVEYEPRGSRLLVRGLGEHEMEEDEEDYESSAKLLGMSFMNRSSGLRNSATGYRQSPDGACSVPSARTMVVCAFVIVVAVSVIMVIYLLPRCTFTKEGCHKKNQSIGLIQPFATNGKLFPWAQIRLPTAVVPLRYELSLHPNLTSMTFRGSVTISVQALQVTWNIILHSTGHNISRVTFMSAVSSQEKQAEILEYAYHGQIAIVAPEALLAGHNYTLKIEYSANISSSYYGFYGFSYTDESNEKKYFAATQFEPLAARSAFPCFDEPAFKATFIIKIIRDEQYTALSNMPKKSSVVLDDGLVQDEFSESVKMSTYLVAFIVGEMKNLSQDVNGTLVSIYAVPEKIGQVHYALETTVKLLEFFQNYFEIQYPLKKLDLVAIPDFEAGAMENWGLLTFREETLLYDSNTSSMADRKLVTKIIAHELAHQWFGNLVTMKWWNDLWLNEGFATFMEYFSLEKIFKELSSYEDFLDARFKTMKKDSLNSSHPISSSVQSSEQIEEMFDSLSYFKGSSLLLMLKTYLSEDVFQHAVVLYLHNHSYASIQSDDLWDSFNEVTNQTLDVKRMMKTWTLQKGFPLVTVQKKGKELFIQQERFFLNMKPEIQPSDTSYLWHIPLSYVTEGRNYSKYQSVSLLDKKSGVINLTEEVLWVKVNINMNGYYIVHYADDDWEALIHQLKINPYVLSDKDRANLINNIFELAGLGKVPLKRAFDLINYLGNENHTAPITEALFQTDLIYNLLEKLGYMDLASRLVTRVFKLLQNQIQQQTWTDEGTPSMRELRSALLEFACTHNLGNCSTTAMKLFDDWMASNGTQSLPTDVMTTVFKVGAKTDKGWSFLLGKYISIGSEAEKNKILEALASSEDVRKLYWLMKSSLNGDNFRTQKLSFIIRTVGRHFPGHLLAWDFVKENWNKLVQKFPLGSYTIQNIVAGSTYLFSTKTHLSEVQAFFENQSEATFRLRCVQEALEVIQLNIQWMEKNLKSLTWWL

## CCCC[C@H](N)C(=O)N[C@@H](Cc1ccc(O)cc1)C(=O)N[C@H](C(=O)N[C@@H](Cc1c[nH]cn1)C(=O)N1CCC[C@H]1C(=O)N[C@@H](Cc1ccccc1)C(=O)O)[C@@H](C)CC [Nle^1-Ang IV, Nle′-YIHPF] (HELM PEPTIDE1{[Nle].Y.I.H.P.F}$$$$V2.0; N-terminus and C-terminus assumed)
[1]
  ERK1/2 phosphorylation: induced phosphorylation of ERK1/2
[2]
  ERK1/2 phosphorylation: induced the phosphorylation of ERK1/2
[3]; chronic infusion (6 days), 0.1 to 0.5 nmol/h, lateral ventricle
  performance in the swim maze task: enhanced performance
[3]; given acutely into the lateral ventricles
  memory deficits induced by scopolamine: reversed the memory deficits
[4]; 10^−6 M peptide with 0.7 nM insulin
  insulin-stimulated glucose uptake: 18.3 ± 2.39 pmol/min/well
[4]; 10^−6 M peptide with 70 nM insulin
  insulin-stimulated glucose uptake: 23.02 ± 1.52 pmol/min/well
[4]; 10^−6 M
  basal glucose uptake: 7.6±1.21 pmol/min/well
[4]; 10^−7 M peptide with 0.7 nM insulin
  insulin-stimulated glucose uptake: 12.2 ± 2.29 pmol/min/well
[4]; 10^−7 M peptide with 70 nM insulin
  insulin-stimulated glucose uptake: 22.99 ± 2.8 pmol/min/well
[4]; 10^−7 M
  basal glucose uptake: 7.2±1.79 pmol/min/well
[4]; both concentrations (10^−7 and 10^−6 M)
  increase of basal glucose uptake: two-fold

## CC[C@H](C)[C@H](NC(=O)[C@H](Cc1ccc(O)cc1)NC(=O)[C@@H](N)C(C)C)C(=O)N[C@@H](Cc1cnc[nH]1)C(=O)N1CCC[C@H]1C(=O)N[C@@H](Cc1ccccc1)C(=O)O [Ang IV, VYIHPF]
[5]
  maximum effect on potassium-evoked ^3H-choline release: 150 % of control
[6]; 10^−10 to 10^−6 M, alone
  stimulation of DNA synthesis: did not stimulate DNA synthesis
[6]; concomitant 10^−6 M Ang IV
  effect on LVVYPWTQRF-stimulated ^3H-thymidine incorporation: completely abolished
[7]
  increase of [^3H]-thymidine uptake: up to 72 % above control levels
[8]
  degradation of the peptide: some degradation
[9]
  latency in re-entering the dark chamber after an aversive stimulus: increased the latency

B1: LVV-hemorphin 7 (LVVYPWTQRF) (peptide)
peptide: LVVYPWTQRF
notes: Globin fragment purified from sheep cerebral cortex; synthetic peptide used in the assays; also called LVV-H7; LV-H7
[10]
  IC50 inhibition leucine β-naphthylamide: 1500 nM
[11]
  IC50: 140 nM
[12]
  Ki: 845 nM
